Results taken from PMC9694711, “Synthesis of Paclitaxel Derivatives for Remote Loading into Liposomes and Improved Therapeutic Effect” (Molecules, 2022).

Key:
[1] = tested on: normal hepatocyte cell line LO2; test: MTT assay, cytotoxicity on normal cell LO2; assay type: cell-based; settings: Hepatocyte; MTT, 72 h; mean of two independent determinations
Procedure: (§1) MTT assay was applied to verify the rationality of the molecular combination strategy. The cytotoxicity of the compounds was evaluated on lung cancer cell line A549, colon cancer cell line HCT-116, breast cancer cell line 4T1 and normal hepatocyte cell line LO2. Paclitaxel was used as a positive drug. […] The therapeutic index (TI) for LO2/HCT-116, LO2/A549 and LO2/4T1 of active compounds 4a, 4d, 13a, 17a, 17c and paclitaxel are shown in Table 2.
(§2) Cells were inoculated in 96-well plates (cell density 2 × 10^4 cells/well) followed by incubation for 24 h at 37 °C. Paclitaxel and target compounds were added to the corresponding well. Subsequently, the cultures were incubated for 72 h. After the MTT solution (50 µL, 2 mg/mL) was added to cultures, the plates were incubated for an additional 4 h. Purple colored formazan crystals were dissolved in 200 µL DMSO, and the absorbance was recorded at 570 nm using Synergy HT, Bio-Tek (Winooski, VT, USA).

[2] = Liposome loading with copper ion gradients (encapsulation efficiency by HPLC); assay type: physicochemical; settings: copper ion gradient
From the text: Vyxeos® is a liposomal formulation of a fixed molar ratio (1:5) combination of the antineoplastic drugs daunorubicin (DN) and cytarabine (Cyt). Daunorubicin is subsequently actively encapsulated with high efficiency through complexation with intra-liposomal copper. The copper gluconate buffer forms a complex with daunorubicin at a ratio of 1:1 to 1:2 [25]. Referring to Vyxeos®, copper ion was selected as a complexed metal ion in the inner phase. […] Therefore, compound 4d was selected to investigate the effect of the anions on the loading efficiency. Among them, only the neutral gluconate copper was a suitable inner phase to facilitate the encapsulation of compound 4d (Table 3).
(§3) The reason for the stability of the neutral formulations was potentially due to the fact that PBA was effectively […] and interacted with copper more tightly in the neutral condition compared with the acidic condition. Thus, the neutral Cu-gluconate was selected as the inner phase. The concentration of copper ions was also investigated, showing that the higher the copper concentration, the higher the EE. Considering the safety of copper ions, 300 mM was chosen. […] The EE of compound 4d active loading liposome was more than 95% with copper ion gradient. Furthermore, we also evaluated the ATP and saccharides as remote gradients with the optimal formulation of copper ion gradients.
(§4) Blank liposomes were prepared for membrane hydration. HSPC, chol and DSPE-PEG2000 were dissolved using chloroform at a mass ratio of 3:1:0.02 and then spin-evaporated at 37 °C. The obtained film was then hydrated with 300 mM Cu-Glu (pH 7.4) at 65 °C for 30 min. The multi-layer vesicles were subsequently put into an extruder and passed through polycarbonate membranes with pore sizes of 400 nm, 200 nm and 100 nm 12 times at 65 °C containing 20 mM HEPES, 15 mM EDTA and 300 mM sucrose for removing the un-encapsulated Cu^2+, and then EDTA was removed with 20 mM HEPES and 300 mM sucrose buffer (pH 7.4, adjusted with triethylamine). Compound 4d was dissolved in DMSO and slowly added into the liposome at 65 °C for 30 min and then quenched in an ice bath for 5 min (the drug to lipid ratio was 1:10). The encapsulation efficiency and drug loading efficiency of compound 4d were determined using HPLC. The morphologies of liposomes were characterized using a transition electron microscope (TEM, Hitachi HT7700, Tokyo, Japan); then, their size, PDI and Zeta potential were measured using a Zetasizer Nano ZS90 (Malvern, UK).

[3] = Liposome loading with calcium acetate gradients; assay type: physicochemical; settings: sediment precipitated after loading
From the text: Since boronic acid RB(OH)2 is not only a weak acid, but also a structure that can complex with copper ions, ATP and saccharides, we investigated whether different inner phases could be employed to encapsulate compounds (4a, 4d, 13a, 17a, 17c) with good therapeutic index.

[4] = Liposome loading with ATP and saccharides gradients; assay type: physicochemical; settings: gradient ATP
Procedure: as §3
Thus, the copper ion gradient was chosen for further experiments.
Blank liposomes were prepared for membrane hydration. HSPC, chol and DSPE-PEG2000 were dissolved using chloroform at a mass ratio of 3:1:0.02 and then spin-evaporated at 37 °C. The obtained film was then hydrated with 300 mM Cu-Glu (pH 7.4) at 65 °C for 30 min. […] The encapsulation efficiency and drug loading efficiency of compound 4d were determined using HPLC. The morphologies of liposomes were characterized using a transition electron microscope (TEM, Hitachi HT7700, Tokyo, Japan); then, their size, PDI and Zeta potential were measured using a Zetasizer Nano ZS90 (Malvern, UK).

[5] = Characterisation of compound 4d liposome (size, PDI, zeta potential, loading, storage stability); assay type: physicochemical; settings: optimal formulation, drug to lipid ratio 1:10
Procedure: The morphology of compound 4d liposome is shown in Figure 3 and Figure 4, with spherical particles, a narrow size distribution at ~110 nm and zeta potential at ~−15 mV (Table S2).
as §4

[6] = tested on: lung cancer cell line A549; test: MTT assay, cytotoxicity on A549; assay type: cell-based, human; settings: for GI50: Homo sapiens, A549, MTT, 72 h, mean of two independent determinations; for TI (LO2/A549): therapeutic index, GI50 LO2 / GI50 A549
Procedure: as §1, §2

[7] = tested on: colon cancer cell line HCT-116; test: MTT assay, cytotoxicity on HCT-116; assay type: cell-based, human; settings: for GI50: Homo sapiens, HCT-116, MTT, 72 h, mean of two independent determinations; for TI (LO2/HCT-116): therapeutic index, GI50 LO2 / GI50 HCT-116
Procedure: as §1, §2

[8] = tested on: breast cancer cell line 4T1; test: MTT assay, cytotoxicity on 4T1; assay type: cell-based, mouse; settings: for GI50: Mus musculus, MTT, 72 h, mean of two independent determinations; for TI (LO2/4T1): therapeutic index, GI50 LO2 / GI50 4T1
Procedure: as §1, §2

4T1 xenograft tumor = test: In vivo antitumor efficacy and toxicity, 4T1 tumor model; settings: 8 mg/kg, 4 times; mice bearing 4T1 tumor
Procedure: A549 and HCT-116 cells are human tumor cells, while 4T1 cells are mouse tumor cells. Based on the availability of the tumor model, mice bearing a 4T1 xenograft tumor were used to study the in vivo antitumor efficacy of the compound 4d liposome. As depicted in Figure 6a, there was difference between compound 4d (8 mg/kg) and the paclitaxel control group (8 mg/kg).
The antitumor effect was evaluated by the nude mice armpit tumor model bearing breast cancer 4T1 cells. When the average tumor volume reached 100 mm^3, the treatment was initiated at a 3-day interval for 12 days. The mice were randomly divided into five groups (n = 5 per group) receiving different palictaxel at 8 mg/kg as follows: saline (the control group), taxol, compound 4d, compound 4d liposome, high dose 4d liposome (3 times the dose, immediately 24 mg/kg). Tumor volume (V = length × width^2/2) and body weight were recorded. At the end of the experiment, mice were sacrificed. The obtained tumors were accurately weighed to calculate the tumor burden (Wtumor/Wbody) and tumor inhibition rate [TIR= (Wcontrol tumor − Wsample tumor)/Wcontrol tumor].

Row | Compound | GI50 [1] [nM] | Encapsulated efficiency, optimal formulation ([2]; drug-to-lipid ratio of 0.1 w/w (1:10)) [%] | encapsulation into liposomes by calcium acetate gradients [3] | loading with inner phase of ATP [4] | Loading efficiency (%) [5] [%] | GI50 [6] [nM] | TI (LO2/A549) [6] | GI50 [7] [nM] | TI (LO2/HCT-116) [7] | GI50 [8] [nM] | TI (LO2/4T1) [8] | tumor inhibition rate (4T1 xenograft tumor) [%] | inhibition % at fixed concentration, A549 (printed in GI50 column) ([6]; @6.25 nM) [%@6.25 nM] | inhibition % at fixed concentration, HCT-116 (printed in GI50 column) ([7]; @6.25 nM) [%@6.25 nM] | loading into liposomes, copper ion as complexed metal ion in the inner phase [2]
1 | CC(=O)OC1C(=O)C2(C)C(O)CC3OCC3(OC(C)=O)C2C(OC(=O)c2ccccc2)C2(O)CC(OC(=O)C(OC(=O)CSSCC(=O)OCc3ccc(B(O)O)cc3)C(NC(=O)c3ccccc3)c3ccccc3)C(C)=C1C2(C)C (centres unmarked) [Compound 4d, 2’-O-[2-((2-((4-boronobenzyl)oxy)-2-oxoethyl)disulfaneyl)acetyl]taxol] | 639 | > 95 | not feasible | not successful | 9.02 | 13.9 | 45.9 | 13 | 49.1 | 69.8 | 9.2 | – | – | – | –
2 | CC(=O)O[C@H]1C(=O)[C@@]2(C)[C@H]([C@H](OC(=O)c3ccccc3)[C@]3(O)C[C@H](OC(=O)[C@H](O)[C@@H](NC(=O)c4ccccc4)c4ccccc4)C(C)=C1C3(C)C)[C@]1(OC(C)=O)CO[C@@H]1C[C@@H]2O [paclitaxel] | 69.1 | – | – | – | – | – | – | – | – | 25.3 | 2.7 | 58.5 | 64.96 | 81.86 | –
3 | CC(=O)OC1C(=O)C2(C)C(O)CC3OCC3(OC(C)=O)C2C(OC(=O)c2ccccc2)C2(O)CC(OC(=O)C(OC(=O)CCCCB(O)O)C(NC(=O)c3ccccc3)c3ccccc3)C(C)=C1C2(C)C (centres unmarked) [Compound 17c, 2’-O-[5-boronopentanoyl]taxol] | 1420 | – | not feasible | – | – | 44.8 | 31.6 | 6.38 | 222.1 | 87.2 | 16.3 | – | – | – | failed in loading into the liposomes
